# In publication PMC7667655, “Targeted Covalent Inhibition of Plasmodium FK506 Binding Protein 35” (ACS Medicinal Chemistry Letters, 2020):
# “Also recorded” adds a separate entry of the source.
# Columns and labels:
# [1] = target: T1, FBD35 (PfFKBP35 binding domain) (Plasmodium falciparum, UniProt Q8I4V8); experiment: Fluorescence polarization competition, FBD35
# T1 construct: FKBP35 Q5 -A128; 6His-SUMO (N, cleaved yes); made in house; host or cells: E. coli BL21 DE3
# FKBP35 = target: T2, FKBP35 (Plasmodium falciparum, UniProt Q8I4V8); experiment: Time course of covalent modification by LC-MS; format: biochemical; conditions: for K, rate of FKBP35 consumption: 2250 nM inhibitor : 450 nM FKBP35, 23 °C, one phase decay fit; for K’, rate of covalent adduct formation: 2250 nM inhibitor : 450 nM FKBP35, exponential plateau fit
# T2 construct: FKBP35 Q5 -A128; 6His-SUMO (N, cleaved yes); made in house; host or cells: E. coli BL21 DE3
# Source text: RT=5.2). B. Overlay of mass determinations from LC traces in (A). FBD35 only (black, m/z = […]
# chromatogram corresponding to Figure 4c detecting the CAM -peptide […] at […]
# m/z 855.8668. D. Mass spec chromatogram corresponding to Figure 4d detecting the CAM - […]
# peptide […] at m/z 855.8670. E. Mass spec chromatogram corresponding to Figure 4e which was unable to detect the mass of the 1c-inclusion peptide. F. Mass spec chromatogram corresponding to Figure 4f detecting the 1c-inclusion peptide […]
# Figure S2. Time course of covalent modification. In order to compare rates of covalent modification, compounds 1a-c, 2a, and 2c were incubated with FKBP35 in a 5:1 ratio (2250 nM inhibitor : 450 nM FKBP35) and FKBP35 consumption or modification determined by LC -MS. A.
# The concentration of residual FKBP35 as a function of time. Data was fit to an exponential “one phase decay” model which was used to calculate the rate (K) and half -life (t1/2) of the reaction.
# The loss of FKBP35 in the DMSO and 1b controls is likely due to adsorption onto the vial. B.
# Concentration of covalent adduct as a function of time. Data was fit to an “exponential plateau” regression model, which was used to calculate the rate of formation (K’). Compound 1b, which […]
# C. Tabulated rates calculated from the regressions in A and B. The rates of FKBP35 consumption correlate strongly with the rates of […]
# (also on this page, place not known: -inclusion 1c 0 20 40 60 0 200 400 600 Time (hours) FKBP35 (nM) Consumption of FKBP35 1a 1b 1c 2a 2c DMSO 0 20 40 60 0 200 400 600 Time (hours) Covalent Adduct (nM) Formation of Covalent Adduct 1a 1b 1c 2a 2c A B) […]
# (1 picture or pasted object on this page, not shown here)
# Experiments were performed using 0.4 mg/mL concentration of wild -type or mutant protein (6 - 9 uM), with and without synthes ized compounds at 40 µM and 2% DMSO (V/V). The respective reference scans were run under identical DSC conditions and subtracted from each sample scan.
# The program was run in a continuous acquisition mode from 25°C to 90°C at a rate of 120C/h The heat capacity curves and midpoint temperature (Tm) were analyzed using Origin 7.0 software.
# Fluorescence Polarization
# The fluorescent tracer SLFb-2PEG-TAMRA was diluted in DMSO to 100 nM (100x stock concentration). FKBP proteins were diluted in assay buffer (150 mM NaCl, 20 mM HEPES pH 7.5, 0.002% Triton X -100) to the indicated concentration. 100x DMSO tracer stock was added to the protein buffer solution to a 1X final concentration and 20 µL of the mixture was aliquoted into each well of a black 384 -well assay plate (No. 3820, Corning Life Sciences). The plate was briefly centrifuged to remove bubbles. Using a d300e digital dispenser (Tecan), competitive ligands (10 mM stock in DMSO) were aliquoted in triplicate in an 8 -point 3x dilution series (30 µM to 13.7 nM final concentra tion) and normalized to 2% total DMSO concentration. Following incubation at room temperature (RT) for one hour, fluorescence polarization was measured using an EnVision Multimode Plate Reader (PerkinElmer) with the TAMRA Dual -FP mirror and filter kit. […]
# analyzed in GraphPad Prism 8 by fitting the data to the “One Site – Fit Ki” model to obtain the […]
# Time Course Analysis of Covalent Inhibition
# The following analy sis was performed as described on two different days, yielding similar results.
# One replicate is shown for clarity. In 1.5 mL snap -top tubes, ligands 1a, 1b, 1c, 2a, and 2c were each diluted to 450 μM in DMSO to produce 200x stock solutions. In a separate 1.5 mL snap-top tube, isolated FKBP35 protein was diluted to 90 μM in the reaction buffer (150 mM NaCl, 20 mM HEPES pH = 7.5) to produce a 200x stock solution. In 2 mL glass mass spec vials, 5 μL of each 200x ligand solution was diluted in 990 μL reaction buffer. Immediately prior to injection of each t=0 time point, 5 μL of the 200x protein solution was added to the mass spec vial and mixed. Samples were analyzed using the Waters BioAccord LC-ToF (composed of an ACQUITY I -Class UPLC and […]
# PBS solubility = conditions: pH 7.4
# T2 sequence (Q8I4V8 5-128): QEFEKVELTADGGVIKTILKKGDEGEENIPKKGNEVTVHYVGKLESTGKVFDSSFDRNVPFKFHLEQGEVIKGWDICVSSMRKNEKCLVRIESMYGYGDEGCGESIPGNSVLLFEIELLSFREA
# T1 sequence (Q8I4V8 5-128): as above
SMILES,IC50 [1] [nM],"K, rate of FKBP35 consumption (FKBP35) [h⁻¹]","K’, rate of covalent adduct formation (FKBP35) [h⁻¹]",solubility (PBS solubility) [µM],covalent adduct formation (in words) (FKBP35; LC-MS time course),"fold weaker binding by FP ([1]; acrylamide moved to ortho position, compared with 1a) [fold]"
C=CC(=O)Nc1cccc([C@@H](CCc2ccc(OC)c(OC)c2)OC(=O)[C@@H]2CCCCN2C(=O)C(=O)C(C)(C)CC)c1 [1a],206,0.0724,0.05948,0.31,,
CCC(=O)Nc1cccc([C@@H](CCc2ccc(OC)c(OC)c2)OC(=O)[C@@H]2CCCCN2C(=O)C(=O)C(C)(C)CC)c1 [1b],76,,,,no binding; also recorded: does not form any adduct,
C=CC(=O)Nc1ccccc1[C@@H](CCc1ccc(OC)c(OC)c1)OC(=O)[C@@H]1CCCCN1C(=O)C(=O)C(C)(C)CC [1c],2850,0.1132,0.1128,3.5,,> 10
C=CC(=O)OCC(C)(C)C(=O)C(=O)N1CCCC[C@H]1C(=O)O[C@H](CCc1ccc(OC)c(OC)c1)c1ccccc1 [2c],559,0.8871,0.9298,< 0.1,,
